Experimental data: patent US6964870B2, “Enhanced selection of genetically modified pine embryogenic tissue” (MeadWestvaco Corporation, priority 2000, dated 2005)

How the values were obtained:
Experiment in all cases: Agrobacterium transformation, transformants per selection plate with ABA in preparation/recovery/selection media
Assay type in all cases: cell-based
[1] = system: P. rigida Hybrid embryogenic cell line H1
From the text: (§1) Seven loblolly pine cell lines or hybrid cell lines from seven widely diverse genetic backgrounds were used in this experiment. To prepare for gene transfer using Agrobacterium, fabric supports were sterilized by autoclaving and placed in a sterile Buchner funnel, and one to five milliliters of embryogenic suspension was pipetted onto each support such that the embryogenic tissue was evenly distributed over its surface. Following this the liquid medium was suctioned from the tissues and each support bearing the embryogenic tissue was placed on gelled medium for inoculation by Agrobacterium. In this case the medium used was the same as the preparation medium described in Example 1 above, except that the medium, used here for preparation and co-cultivation of the cells, contained ABA at 0, 10, or 30 mg/L as an experimental condition. Genes were then introduced into the plant material by co-cultivation with Agrobacterium(Wenck et al. 1999). Specifically, gene constructs containing a reporter gene and a selectable marker were introduced into Agrobacterium tumefaciens strain EHA105 with the virulence-enhancing plasmid pTOK47 (Wenck et al. 1999), by techniques well known to those skilled in the art, and virulence was then induced with administration of acetosyringone by commonly used techniques, well known to those skilled in the art, whereupon the induced Agrobacterium was dripped over the plant material and these were co-cultivated in the dark at 23°±2° C. for approximately 24-72 hours. Those skilled in the art recognize that many different gene constructs, plasmids, strains, media, and co-cultivation times and protocols would be suitable for use in the present method.
(§2) Following co-cultivation, cells were re-suspended into fresh DCR4 liquid wash medium (Table 2) containing eradicants such as 200-400 mg/L TIMENTIN® antibiotic. The DCR4 liquid wash medium was contained in sterile “baby food” jars with MAGENTA® aerated lids, conventional beakers, or multi-well plates. Resuspension was initiated by grasping the membrane support bearing the infected cells, using forceps, and rolling or folding it so that it could be taken up and placed into the liquid in the wash container. The liquid was then agitated to get the cells into suspension, and the membrane support was scraped with sterile forceps if cells appeared to be adhering to it. Once the cells were in suspension, the membrane was removed with sterile forceps.
(§3) Following this wash step, the cells were plated onto fresh sterile support membranes of the same type as used in the previous step, again by placing the fresh sterile support membranes in a sterile Buchner funnel, pipetting the suspension of plant cells onto the membranes, and again suctioning the liquid medium from the tissues using a mild vacuum. The cells were again resuspended in and cultured in fresh sterile wash medium by agitating the membrane bearing the cells in the liquid, again removing cells that appeared to be adhering by gently scraping with forceps. The cells were then re-plated on fresh membrane supports over Buchner funnels. This procedure was repeated twice before the cells were again plated on supports as described above.
(§4) Supports bearing approximately 0.1 g of embryogenic tissue were divided onto recovery media (having the same formulation as the maintenance medium except for the addition of 400 mg/L TIMENTIN® antibiotic) either containing or lacking ABA. […] Concentrations of ABA used in all these media were 0, 10, and 30 mg/l.
(§5) Cells were maintained on the selection media, with transfer of the polyester support membranes to fresh selection media of the same composition, every two weeks for a total of eight weeks of selection. Cells from actively growing sublines from selection were examined using stereomicroscopes for the expression of the visual marker gene uidA at the conclusion of the selection period. […]

[2] = system: P. taeda embryogenic cell line P1
From the text: as §1, §2, §3, §4, §5

[3] = system: P. taeda embryogenic cell line P2
From the text: as §1, §2, §3, §4, §5

[4] = system: P. taeda embryogenic cell line P3
From the text: as §1, §2, §3, §4, §5

[5] = system: P. taeda embryogenic cell line P4
From the text: as §1, §2, §3, §4, §5

[6] = system: P. taeda embryogenic cell line P5
From the text: as §1, §2, §3, §4, §5

[7] = system: P. taeda embryogenic cell line P6
From the text: as §1, §2, §3, §4, §5

[8] = ABA mg/l in preparation/recovery/selection medium 0/0/10
[9] = ABA mg/l in preparation/recovery/selection medium 0/0/30
[10] = ABA mg/l in preparation/recovery/selection medium 0/10/10
[11] = ABA mg/l in preparation/recovery/selection medium 0/10/30
[12] = ABA mg/l in preparation/recovery/selection medium 0/30/30
[13] = ABA mg/l in preparation/recovery/selection medium 10/10/10
[14] = ABA mg/l in preparation/recovery/selection medium 30/10/10
[15] = ABA mg/l in preparation/recovery/selection medium 30/30/30

CC1=CC(=O)CC(C)(C)[C@@]1(O)/C=C/C(C)=C\C(=O)O [ABA, abscisic acid]
Average (n = 12) Number of Transformants observed per Selection Plate [1, 8]: 27.0 +/− 11.2 | Average (n = 12) Number of Transformants observed per Selection Plate [1, 9]: 21.1 +/− 6.5 | Average (n = 12) Number of Transformants observed per Selection Plate [1, 10]: 19.0 +/− 6.5 | Average (n = 12) Number of Transformants observed per Selection Plate [1, 11]: 21.6 +/− 8.6 | Average (n = 12) Number of Transformants observed per Selection Plate [1, 12]: 15.1 +/− 4.9 | Average (n = 12) Number of Transformants observed per Selection Plate [1, 13]: 21.9 +/− 8.4 | Average (n = 12) Number of Transformants observed per Selection Plate [1, 14]: 22.9 +/− 10.1 | Average (n = 12) Number of Transformants observed per Selection Plate [1, 15]: 21.8 +/− 9.9 | Average (n = 12) Number of Transformants observed per Selection Plate [2, 8]: 0.3 +/− 0.9 | Average (n = 12) Number of Transformants observed per Selection Plate [2, 9]: 0.0 +/− 0.0 | Average (n = 12) Number of Transformants observed per Selection Plate [2, 10]: 0.0 +/− 0.0 | Average (n = 12) Number of Transformants observed per Selection Plate [2, 11]: 0.1 +/− 0.3 | Average (n = 12) Number of Transformants observed per Selection Plate [2, 12]: 0.8 +/− 0.6 | Average (n = 12) Number of Transformants observed per Selection Plate [2, 13]: 1.3 +/− 0.9 | Average (n = 12) Number of Transformants observed per Selection Plate [2, 14]: 0.3 +/− 0.5 | Average (n = 12) Number of Transformants observed per Selection Plate [2, 15]: 0.4 +/− 0.8 | Average (n = 12) Number of Transformants observed per Selection Plate [3, 8]: 5.8 +/− 2.3 | Average (n = 12) Number of Transformants observed per Selection Plate [3, 9]: 8.8 +/− 4.8 | Average (n = 12) Number of Transformants observed per Selection Plate [3, 10]: 1.0 +/− 1.0 | Average (n = 12) Number of Transformants observed per Selection Plate [3, 11]: 0.3 +/− 0.5 | Average (n = 12) Number of Transformants observed per Selection Plate [3, 12]: 5.2 +/− 6.1 | Average (n = 12) Number of Transformants observed per Selection Plate [3, 13]: 10.0 | Average (n = 12) Number of Transformants observed per Selection Plate [3, 14]: 5.9 +/− 2.4 | Average (n = 12) Number of Transformants observed per Selection Plate [3, 15]: 5.3 +/− 2.5 | Average (n = 12) Number of Transformants observed per Selection Plate [4, 8]: 21.7 +/− 3.6 | Average (n = 12) Number of Transformants observed per Selection Plate [4, 9]: 22.3 +/− 5.4 | Average (n = 12) Number of Transformants observed per Selection Plate [4, 10]: 23.3 +/− 2.8 | Average (n = 12) Number of Transformants observed per Selection Plate [4, 11]: 26.0 +/− 6.9 | Average (n = 12) Number of Transformants observed per Selection Plate [4, 12]: 18.6 +/− 5.1 | Average (n = 12) Number of Transformants observed per Selection Plate [4, 13]: 22.6 +/− 4.3 | Average (n = 12) Number of Transformants observed per Selection Plate [4, 14]: 21.6 +/− 3.6 | Average (n = 12) Number of Transformants observed per Selection Plate [4, 15]: 21.1 +/− 2.3 | Average (n = 12) Number of Transformants observed per Selection Plate [5, 8]: 27.5 +/− 11.4 | Average (n = 12) Number of Transformants observed per Selection Plate [5, 9]: 34.9 +/− 9.7 | Average (n = 12) Number of Transformants observed per Selection Plate [5, 10]: 28.8 +/− 11.6 | Average (n = 12) Number of Transformants observed per Selection Plate [5, 11]: 30.9 +/− 9.3 | Average (n = 12) Number of Transformants observed per Selection Plate [5, 12]: 28.6 +/− 7.6 | Average (n = 12) Number of Transformants observed per Selection Plate [5, 13]: 27.8 +/− 9.0 | Average (n = 12) Number of Transformants observed per Selection Plate [5, 14]: 22.7 +/− 7.0 | Average (n = 12) Number of Transformants observed per Selection Plate [5, 15]: 27.3 +/− 7.4 | Average (n = 12) Number of Transformants observed per Selection Plate [6, 8]: 18.1 +/− 4.0 | Average (n = 12) Number of Transformants observed per Selection Plate [6, 9]: 5.5 +/− 3.1 | Average (n = 12) Number of Transformants observed per Selection Plate [6, 10]: 2.4 +/− 2.0 | Average (n = 12) Number of Transformants observed per Selection Plate [6, 11]: 7.2 +/− 2.1 | Average (n = 12) Number of Transformants observed per Selection Plate [6, 12]: 3.3 +/− 2.1 | Average (n = 12) Number of Transformants observed per Selection Plate [6, 13]: 10.3 +/− 2.4 | Average (n = 12) Number of Transformants observed per Selection Plate [6, 14]: 11.3 +/− 2.4 | Average (n = 12) Number of Transformants observed per Selection Plate [6, 15]: 14.3 +/− 3.5 | Average (n = 12) Number of Transformants observed per Selection Plate [7, 8]: 3.9 +/− 1.5 | Average (n = 12) Number of Transformants observed per Selection Plate [7, 9]: 3.3 +/− 2.8 | Average (n = 12) Number of Transformants observed per Selection Plate [7, 10]: 3.2 +/− 1.4 | Average (n = 12) Number of Transformants observed per Selection Plate [7, 11]: 3.2 +/− 1.5 | Average (n = 12) Number of Transformants observed per Selection Plate [7, 12]: 2.3 +/− 2.6 | Average (n = 12) Number of Transformants observed per Selection Plate [7, 13]: 4.5 +/− 1.3 | Average (n = 12) Number of Transformants observed per Selection Plate [7, 14]: 3.1 +/− 2.3 | Average (n = 12) Number of Transformants observed per Selection Plate [7, 15]: 2.3 +/− 1.1
